This is an account of results in patent US9676782B2, “Substituted pyrazolo[1,5-a]pyrazines as negative allosteric modulators of metabotropic glutamate receptor 3” (Vanderbilt University, priority 2014, dated 2017).

Like-named read-outs stand apart in the source and are kept apart here.

One assay addresses rat mGlu3 (Rattus norvegicus (Rat), UniProt P31422). As to the kind of experiment: mGlu3 Ca2+ flux assay. The settings on record: for remaining activity at 30 µM: amplitude of response at 30 μM test compound as % of maximal response to glutamate, read-out: rat mGlu3 Glu max (%); for mGlu3 Glu max: response at 30 μM compound as percentage of maximal glutamate response. The assay is classed as cell-based. A digest of the protocol:
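Cells expressing rat mGlu3 were grown overnight at 37° C. under 5% CO2, then loaded with dye. After dye removal they received 20 μL of assay buffer and sat 10 minutes at room temperature. Calcium flux was read on a Hamamatsu FDSS7000, and fluorescence was expressed as fold over basal and normalized to the maximal glutamate response.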
(A change in cytosolic calcium serves as a functional read-out for many receptors and channels.)

In the next assay the target is rat mGlu5 (Rattus norvegicus (Rat), UniProt P31424). As to the kind of experiment: mGlu5 Ca2+ flux assay. The assay is classed as cell-based. The conditions noted are these: for Fold selectivity (mGlu3 vs. mGlu5): ratio of rat mGlu5 EC50 or IC50 to rat mGlu3 IC50; for mGlu5 Glu max: response at 30 μM compound as percentage of maximal glutamate response; for Emax at 30 µM: PAM, amplitude of response at 30 μM test compound as % of maximal response to glutamate, read-out: rat mGlu5 Glu max (%). A digest of the protocol:
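Transfected cells grown overnight at 37° C/5% CO2, dye-loaded, then 5 min in assay buffer at RT before Ca2+ flux read on FDSS7000. Fluorescence as F/F0 fold over basal, normalized to maximal glutamate response; EC50 from unconstrained 4-parameter logistic fit, triplicates weighted evenly.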

[1] abbreviates: read-out: rat mGlu5 EC50 or IC50.
Setting [2] is: Table 2 compounds with X = NH, read-out: mGlu3 IC50.
The mark [3] stands for this setting: Table 2 compounds with X = NH, read-out: mGlu5 EC50.
Where [4] appears, read: NAM potency, decrease of glutamate EC80 response, >30,000 = no measurable activity, >10,000 = no plateau, read-out: rat mGlu3 IC50.

Sequence of rat mGlu3 (P31422 23-879): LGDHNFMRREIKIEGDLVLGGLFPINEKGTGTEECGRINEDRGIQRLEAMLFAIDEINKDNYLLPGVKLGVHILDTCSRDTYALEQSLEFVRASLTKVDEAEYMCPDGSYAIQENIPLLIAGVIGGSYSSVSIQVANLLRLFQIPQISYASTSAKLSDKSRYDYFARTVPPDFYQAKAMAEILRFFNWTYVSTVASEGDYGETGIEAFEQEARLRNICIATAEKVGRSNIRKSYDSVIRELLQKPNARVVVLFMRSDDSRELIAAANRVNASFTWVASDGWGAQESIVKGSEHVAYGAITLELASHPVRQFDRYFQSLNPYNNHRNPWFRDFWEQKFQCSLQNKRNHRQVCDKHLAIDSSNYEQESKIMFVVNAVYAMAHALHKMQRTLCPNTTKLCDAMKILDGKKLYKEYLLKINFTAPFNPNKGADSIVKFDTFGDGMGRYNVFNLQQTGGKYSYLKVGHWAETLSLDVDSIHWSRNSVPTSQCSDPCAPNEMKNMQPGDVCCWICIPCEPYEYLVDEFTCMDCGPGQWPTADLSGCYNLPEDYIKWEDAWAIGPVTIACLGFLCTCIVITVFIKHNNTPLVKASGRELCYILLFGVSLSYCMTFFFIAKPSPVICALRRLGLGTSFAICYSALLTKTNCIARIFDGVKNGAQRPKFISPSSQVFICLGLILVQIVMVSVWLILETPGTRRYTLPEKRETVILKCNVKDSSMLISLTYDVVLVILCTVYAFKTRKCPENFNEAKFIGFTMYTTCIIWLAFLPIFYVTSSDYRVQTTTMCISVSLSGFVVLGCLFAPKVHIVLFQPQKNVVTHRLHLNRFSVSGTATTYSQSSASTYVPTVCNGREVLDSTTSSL
Sequence of rat mGlu5 (P31424 21-1203): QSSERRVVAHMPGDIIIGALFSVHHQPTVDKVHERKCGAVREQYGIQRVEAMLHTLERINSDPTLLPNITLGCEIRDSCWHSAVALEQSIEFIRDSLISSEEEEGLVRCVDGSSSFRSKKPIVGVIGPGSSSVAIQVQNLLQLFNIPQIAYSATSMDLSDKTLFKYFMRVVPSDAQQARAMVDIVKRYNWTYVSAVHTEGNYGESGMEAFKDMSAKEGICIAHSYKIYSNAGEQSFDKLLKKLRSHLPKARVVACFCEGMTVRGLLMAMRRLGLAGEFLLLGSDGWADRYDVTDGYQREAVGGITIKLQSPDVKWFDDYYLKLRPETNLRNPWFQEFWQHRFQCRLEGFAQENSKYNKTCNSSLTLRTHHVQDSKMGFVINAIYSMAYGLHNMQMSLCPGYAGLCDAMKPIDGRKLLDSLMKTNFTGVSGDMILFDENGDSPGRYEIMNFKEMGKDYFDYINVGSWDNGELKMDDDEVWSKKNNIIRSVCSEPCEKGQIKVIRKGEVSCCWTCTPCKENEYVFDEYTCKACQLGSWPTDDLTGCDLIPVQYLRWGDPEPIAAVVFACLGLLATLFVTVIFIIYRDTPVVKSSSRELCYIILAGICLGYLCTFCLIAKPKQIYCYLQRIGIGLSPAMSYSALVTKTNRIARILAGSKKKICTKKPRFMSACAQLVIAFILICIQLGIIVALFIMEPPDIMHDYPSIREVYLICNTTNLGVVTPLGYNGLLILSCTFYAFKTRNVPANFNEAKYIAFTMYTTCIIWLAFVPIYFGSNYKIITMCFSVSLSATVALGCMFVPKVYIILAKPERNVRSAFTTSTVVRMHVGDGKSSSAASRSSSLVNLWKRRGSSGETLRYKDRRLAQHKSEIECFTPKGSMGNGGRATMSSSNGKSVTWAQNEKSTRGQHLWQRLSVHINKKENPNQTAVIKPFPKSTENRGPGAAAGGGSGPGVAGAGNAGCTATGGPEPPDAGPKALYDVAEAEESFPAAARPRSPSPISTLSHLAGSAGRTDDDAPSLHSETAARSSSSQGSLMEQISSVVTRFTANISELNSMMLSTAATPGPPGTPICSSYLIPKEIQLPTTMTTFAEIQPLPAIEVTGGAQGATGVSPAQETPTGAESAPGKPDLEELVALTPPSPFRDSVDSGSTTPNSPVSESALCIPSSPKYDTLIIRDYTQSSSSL

For orientation: IC50 means the concentration that gives 50% inhibition. One may read the EC50 as the concentration at which the effect is half-maximal. As to `CCN(Cc1cc2n(n1)CCN(c1ccc(F)c(F)c1)C2=O)c1ccc(OC)cc1` [Compound 168, 5-(3,4-difluorophenyl)-2-((ethyl(4-methoxyphenyl)amino)methyl)-6,7-dihydropyrazolo[1,5-a]pyrazin-4(5H)-one], on rat mGlu3, the remaining activity at 30 µM was 1.95%. Moreover, on rat mGlu3 (read-out: rat mGlu3 IC50), the IC50 is 2120 nM. Also, the “Fold selectivity (mGlu3 vs. mGlu5)” value at rat mGlu5 was over 14. Also, the EC50 on rat mGlu5 (setting [1]) was over 30000 nM.
Consider `CN(Cc1cc2n(n1)CCN(c1ccc(F)cc1)C2=O)c1ccccc1F` [drawing 30 X = NMe], for which the IC50 at rat mGlu3 (Table 2 compounds with X = NMe, read-out: mGlu3 IC50) was determined as 876 nM. Further, the “mGlu3 Glu max” value on rat mGlu3 (Table 2 compounds with X = NMe) is on record as −1%. Further, the EC50 at rat mGlu5 (Table 2 compounds with X = NMe, read-out: mGlu5 EC50) was over 30000 nM.
Take `O=C1c2cc(CNc3ccccc3F)nn2CCN1c1ccc(F)cc1` [drawing 30 X = NH]: the IC50 at rat mGlu3 (setting [2]) was 944 nM. Further, the “mGlu3 Glu max” value at rat mGlu3 (Table 2 compounds with X = NH) amounted to 2%. For the same compound, the EC50 on rat mGlu5 (setting [3]) was 2470 nM. For the same compound, on rat mGlu5 (Table 2 compounds with X = NH), the “mGlu5 Glu max” value is recorded as 96%.
Consider `O=C1c2cc(COc3cccc(F)c3)nn2CCN1c1ccc(F)cc1` [drawing 31 X = O, reference compound], for which the IC50 at rat mGlu3 (Table 2 compounds with X = O, read-out: mGlu3 IC50) was 132 nM. At rat mGlu3 (Table 2 compounds with X = O), the “mGlu3 Glu max” value is 1%. Also, at rat mGlu5 (Table 2 compounds with X = O, read-out: mGlu5 EC50), the EC50 turned out to be 192 nM. Also, the “mGlu5 Glu max” value on rat mGlu5 (Table 2 compounds with X = O) is recorded as 69%.
With `COc1ccc(N(C)Cc2cc3n(n2)CCN(c2cc(F)cc(OC)c2)C3=O)cc1` [Compound 132, 5-(3-fluoro-5-methoxyphenyl)-2-(((4-methoxyphenyl)(methyl)amino)methyl)-6,7-dihydropyrazolo[1,5-a]pyrazin-4(5H)-one], the IC50 at rat mGlu3 (setting [4]) came out at 1340 nM. The remaining activity at 30 µM at rat mGlu3 was found to be 1.5%. Moreover, the “Fold selectivity (mGlu3 vs. mGlu5)” value at rat mGlu5 was over 22. Further, the EC50 at rat mGlu5 (setting [1]) is over 30000 nM.
The corresponding values for `COc1ccc(N(C)Cc2cc3n(n2)CCN(c2cccc(OC)c2)C3=O)cc1` [Compound 113, 5-(3-methoxyphenyl)-2-(((4-methoxyphenyl)(methyl)amino)methyl)-6,7-dihydropyrazolo[1,5-a]pyrazin-4(5H)-one] are 1120 nM, 0.7%, over 26 and over 30000 nM.
Turning to `C[C@@H]1CN(c2ccc(F)cc2)C(=O)c2cc(CNc3ccccc3)nn21` [Compound 40, (R)-5-(4-fluorophenyl)-7-methyl-2-((phenylamino)methyl)-6,7-dihydropyrazolo[1,5-a]pyrazin-4(5H)-one], at rat mGlu3 (setting [4]), the IC50 came to 1380 nM. On rat mGlu3, the remaining activity at 30 µM was 5.15%. In addition, at rat mGlu5, the Emax at 30 µM was found to be 34.4% and the “Fold selectivity (mGlu3 vs. mGlu5)” value amounted to 3.49. At rat mGlu5 (setting [1]), the concentration giving a half-maximal response (EC50) was 4810 nM.
As for `O=C1c2cc(CNc3ccc(OC(F)F)cc3F)nn2CCN1c1ccc(F)cc1F` [Compound 141, 2-(((4-(difluoromethoxy)-2-fluorophenyl)amino)methyl)-5-(2,4-difluorophenyl)-6,7-dihydropyrazolo[1,5-a]pyrazin-4(5H)-one], the IC50 on rat mGlu3 (setting [4]) stood at 706 nM. Further, the remaining activity at 30 µM at rat mGlu3 came to 1.87%. Moreover, the “Fold selectivity (mGlu3 vs. mGlu5)” value at rat mGlu5 was over 42. For the same compound, the EC50 at rat mGlu5 (setting [1]) was over 30000 nM.
The corresponding values for `CN(Cc1cc2n(n1)CCN(c1ccc(F)cc1)C2=O)c1ccc(Br)cc1` [Compound 91, 2-(((4-bromophenyl)(methyl)amino)methyl)-5-(4-fluorophenyl)-6,7-dihydropyrazolo[1,5-a]pyrazin-4(5H)-one] are 592 nM, 2.53%, over 50 and over 30000 nM.
The corresponding values for `O=C1c2cc(CNc3ccc(OC(F)F)cc3F)nn2CCN1c1cc(F)cc(F)c1` [Compound 152, 2-(((4-(difluoromethoxy)-2-fluorophenyl)amino)methyl)-5-(3,5-difluorophenyl)-6,7-dihydropyrazolo[1,5-a]pyrazin-4(5H)-one] are 1070 nM, 2.23%, over 28 and over 30000 nM.
In the same order, the values of `COc1ccc(N(C)Cc2cc3n(n2)CCN(c2c(F)cc(Cl)cc2F)C3=O)cc1` [Compound 128, 5-(4-chloro-2,6-difluorophenyl)-2-(((4-methoxyphenyl)(methyl)amino)methyl)-6,7-dihydropyrazolo[1,5-a]pyrazin-4(5H)-one] are 1860 nM, 1.8%, over 16 and over 30000 nM.
Take `Cc1cccnc1NCc1cc2n(n1)CCN(c1ccc(F)cc1)C2=O` [Compound 160, 5-(4-fluorophenyl)-2-(((3-methylpyridin-2-yl)amino)methyl)-6,7-dihydropyrazolo[1,5-a]pyrazin-4(5H)-one]: the IC50 on rat mGlu3 (setting [4]) was 4700 nM. The remaining activity at 30 µM at rat mGlu3 turned out to be 0.18%. On rat mGlu5, the “Fold selectivity (mGlu3 vs. mGlu5)” value is over 6.3. Besides, on rat mGlu5 (setting [1]), the EC50 was over 30000 nM.
`C[C@@H]1CN(c2ccc(F)cc2)C(=O)c2cc(CNc3ccc(F)cc3F)nn21` [Compound 75, (R)-2-(((2,4-difluorophenyl)amino)methyl)-5-(4-fluorophenyl)-7-methyl-6,7-dihydropyrazolo[1,5-a]pyrazin-4(5H)-one]: on rat mGlu3 (setting [4]), the IC50 stood at 771 nM. Besides, at rat mGlu3, the remaining activity at 30 µM was determined as 2.66%. At rat mGlu5, the Emax at 30 µM is 85.6% and the “Fold selectivity (mGlu3 vs. mGlu5)” value is on record as 7.56. Besides, the EC50 at rat mGlu5 (setting [1]) was determined as 5830 nM.
The corresponding values for `O=C1c2cc(CNc3ccc(F)c(F)c3)nn2CCN1c1ccc(F)cc1` [Compound 31, 2-(((3,4-difluorophenyl)amino)methyl)-5-(4-fluorophenyl)-6,7-dihydropyrazolo[1,5-a]pyrazin-4(5H)-one] are 462 nM, 2.02%, 75.8%, 5.37 and 2480 nM.
Regarding `COc1cccc(NCc2cc3n(n2)[C@H](C)CN(c2ccc(F)cc2)C3=O)c1` [Compound 52, (R)-5-(4-fluorophenyl)-2-(((3-methoxyphenyl)amino)methyl)-7-methyl-6,7-dihydropyrazolo[1,5-a]pyrazin-4(5H)-one], the IC50 at rat mGlu3 (setting [4]) came out at 2720 nM. In addition, the remaining activity at 30 µM at rat mGlu3 was 4.06%. In addition, the “Fold selectivity (mGlu3 vs. mGlu5)” value at rat mGlu5 is over 11. At rat mGlu5 (setting [1]), the EC50 was over 30000 nM.
For the compound `O=C1c2cc(CNc3ccc(OC(F)F)cc3F)nn2CCN1c1ccc(F)cc1` [Compound 37, 2-(((4-(difluoromethoxy)-2-fluorophenyl)amino)methyl)-5-(4-fluorophenyl)-6,7-dihydropyrazolo[1,5-a]pyrazin-4(5H)-one], the remaining activity at 30 µM at rat mGlu3 was 2.57%. Besides, the IC50 at rat mGlu3 (read-out: rat mGlu3 IC50) turned out to be 334 nM. Besides, on rat mGlu5, the Emax at 30 µM is 38.4% and the “Fold selectivity (mGlu3 vs. mGlu5)” value is on record as over 29. Besides, the EC50 at rat mGlu5 (setting [1]) was over 10000 nM.
For the compound `COc1ccc(N(C)Cc2cc3n(n2)CCN(c2c(F)cc(F)cc2F)C3=O)cc1` [Compound 102, 2-(((4-methoxyphenyl)(methyl)amino)methyl)-5-(2,4,6-trifluorophenyl)-6,7-dihydropyrazolo[1,5-a]pyrazin-4(5H)-one], the IC50 at rat mGlu3 (setting [4]) amounted to 801 nM. For the same compound, on rat mGlu3, the remaining activity at 30 µM was determined as 1.68%. Moreover, the “Fold selectivity (mGlu3 vs. mGlu5)” value at rat mGlu5 was over 37. The EC50 on rat mGlu5 (setting [1]) is over 30000 nM.
Take `O=C1c2cc(CNc3ccccc3)nn2CCN1c1ccc(F)cc1` [drawing 29 X = NH]: at rat mGlu3 (setting [2]), the IC50 turned out to be 1320 nM. Also, the “mGlu3 Glu max” value on rat mGlu3 (Table 2 compounds with X = NH) is recorded as 2%. Besides, the EC50 on rat mGlu5 (setting [3]) came to 2040 nM. Besides, at rat mGlu5 (Table 2 compounds with X = NH), the “mGlu5 Glu max” value is listed as 98%.
For the compound `CN(Cc1cc2n(n1)CCN(c1ccc(F)cc1)C2=O)c1ccccc1F` [Compound 83, 5-(4-fluorophenyl)-2-(((2-fluorophenyl)(methyl)amino)methyl)-6,7-dihydropyrazolo[1,5-a]pyrazin-4(5H)-one], the IC50 on rat mGlu3 (setting [4]) was 876 nM. The remaining activity at 30 µM on rat mGlu3 was -0.98%. Moreover, the “Fold selectivity (mGlu3 vs. mGlu5)” value on rat mGlu5 was over 34. Further, the EC50 on rat mGlu5 (setting [1]) is over 30000 nM.
Take `Cc1ccc(NCc2cc3n(n2)CCN(c2ccc(F)cc2)C3=O)nc1` [Compound 159, 5-(4-fluorophenyl)-2-(((5-methylpyridin-2-yl)amino)methyl)-6,7-dihydropyrazolo[1,5-a]pyrazin-4(5H)-one]: at rat mGlu3 (setting [4]), the IC50 turned out to be 1770 nM. The remaining activity at 30 µM on rat mGlu3 was found to be 0.86%. Also, the “Fold selectivity (mGlu3 vs. mGlu5)” value on rat mGlu5 was over 16. For the same compound, the 50% effective concentration (EC50) at rat mGlu5 (setting [1]) is over 30000 nM.
Regarding `Cc1ccc(NCc2cc3n(n2)[C@@H](C)CN(c2ccc(F)cc2)C3=O)cc1` [Compound 59, (S)-5-(4-fluorophenyl)-7-methyl-2-((p-tolylamino)methyl)-6,7-dihydropyrazolo[1,5-a]pyrazin-4(5H)-one], the IC50 at rat mGlu3 (setting [4]) stood at 1740 nM. Besides, the remaining activity at 30 µM at rat mGlu3 is 3.14%. Besides, at rat mGlu5, the Emax at 30 µM came out at 48.9% and the “Fold selectivity (mGlu3 vs. mGlu5)” value is over 5.7. Moreover, the EC50 at rat mGlu5 (setting [1]) is over 10000 nM.
